Measured values as given in article PMC6384730, “Systematic Identification of Thiosemicarbazides for Inhibition of Toxoplasma gondii Growth In Vitro” (Molecules, 2019).
Converted amounts (≈) assume the structure as drawn. “And” between values parts separate entries of the source, which are not always exact repeats. Identical values can stand only once. Like-named read-outs stand apart in the source and are kept apart here.

What was measured:
T. gondii RH tachyzoites = experiment: Influence on T. gondii proliferation ([3H]uracil incorporation) in infected Vero cells; type: cell-based, Toxoplasma gondii; conditions: for IC50: Toxoplasma gondii, Vero
Experimental: Vero cell line (African green monkey kidney) (ATCC® CCL-81™) were maintained in EMEM (EMEM/10%HIFBS/P/S) (Eagle’s Minimum Essential Medium—ATCC® 30-2003™) culture medium supplemented with 10% HIFBS (Heat-Inactivated (1 h in 56°C) Fetal Bovine Serum—ATCC), 100 U/mL penicillin, 100 μg/mL streptomycin. The cell line was trypsinized (using Trypsin-EDTA Solution, 1X ATCC® 30-2101™) twice a week, and seeded at density 1 × 10^6 per T25 cell culture flask (Falcon), and incubated for 24–48 h at 37 °C and 5 CO2 to achieve a confluent monolayer. The highly virulent RH strain of Toxoplasma gondii, haplogroup I (ATCC® PRA-310™) were maintained as tachyzoites according to the ATCC product sheet, in DMEM (Dulbecco’s Modified Eagle’s Medium—ATCC® 30-2002™) (DMEM/3%HIFBS/P/S—parasite culture medium) under condition 37 °C and 5 CO2 and passage twice per week.
The Vero cells were seeded on 96-well plates (1 × 10^5 cells/100 µL/well) in EMEM/10%HIFBS/P/S. After 24 h of incubation medium was removed and then T. gondii RH tachyzoites were added to the cell monolayers at density 1 × 10^5 cells/100 µL/well in DMEM/3%HIFBS/P/S. One hour later different compounds and sulfadiazine dilutions (100 µL/well) in parasite culture medium were added to the cell monolayers with T. gondii. After subsequent 24 h of incubation 1 µCi/well [5,6-^3H] uracil (Moravek Biochemicals Inc., Brea, CA, USA) was applied to each microculture for further 72 h. The amount of the isotope incorporated into the parasite nucleic acid pool, corresponding to the parasite growth, was measured by liquid scintillation counting using 1450 Microbeta Plus Liquid Scintillation Counter (Wallac Oy, Turku, Finland). The results were expressed as counts per minute (CPM) and transformed to the percentage of viability compared to untreated cells. All experiments were performed in triplicate.

[1] = MTT cell viability (cytotoxicity) assay on L929 cells; type: cell-based, mouse; conditions: mouse, 24 h, % of untreated cells; for viability at 24 h, 62.5 µg/mL: 62.50 µg/mL
Experimental: (§1) Cells were trypsinized twice a week, and seeded at density 1 × 10^6 per T25 cell culture flask, and incubated for 24-48 h at 37 °C and 10% CO2 to achieve a confluent monolayer. […] The final concentration of DMSO in compounds dilutions was not higher than 1.00%. […] Dilution of the all compounds 2-22 and drug were freshly prepared before the cells were exposed. […] The MTT assay was used according to international standards: ISO 10993-5:2009(E), Biological evaluation of medical devices, Part 5: Tests for in vitro cytotoxicity. […] Afterward, the culture medium in the plates was replaced by 100 μL of compounds and sulfadiazine suspension and the cells were exposed for 24 h. Then, 1 mg/mL of MTT solution in RPMI 1640 without phenol red was prepared and 50 μL of the solution was added to each well and incubated at 37 °C, 10% CO2 for 2 h. Mitochondrial dehydrogenases of viable cells reduced the yellowish water-soluble MTT to water-insoluble formazan crystals, which were solubilized with dimethyl sulfoxide (DMSO). The cell culture medium was aspirated cautiously, after which 150 μL DMSO was added to each well, the plates were gently mixed, then 25 μL 0.1 M glycine buffer (pH = 10.5) (Sigma) was added. Optical density was read on the ELISA reader (Multiskan EX, Labsystems, Vienna, VA, USA) at 570 nm. The results were expressed as the percentage of viability compared to untreated cells. All experiments were performed in triplicate. Moreover, cells were treated with 4.0-0.03% concentration of DMSO as a compounds solvent (data not shown).

L929 cells = experiment: as above; type: cell-based, mouse; conditions: L929 cells, 24 h exposure
Experimental: as §1

[2] = RH tachyzoites in Vero cells, [3H]uracil incorporation, highest concentration tested 125 µg/mL, read-out: IC50 (50% inhibition of T. gondii proliferation in vitro)

Row | SMILES | IC50 (T. gondii RH tachyzoites; [2]) [µg/mL] | viability at 24 h, 3.91 µg/mL ([1]; L929 mouse fibroblast cells) [%] | viability at 24 h, 7.81 µg/mL ([1]; L929 mouse fibroblast cells) [%] | viability at 24 h, 15.63 µg/mL ([1]; L929 mouse fibroblast cells) [%] | viability at 24 h, 31.25 µg/mL ([1]; L929 mouse fibroblast cells) [%] | viability at 24 h, 62.5 µg/mL ([1]; L929 mouse fibroblast cells) [%] | viability at 24 h, 125 µg/mL ([1]; L929 mouse fibroblast cells) [%] | viability at 24 h, 250 µg/mL ([1]; L929 mouse fibroblast cells) [%] | viability at 24 h, 500 µg/mL ([1]; L929 mouse fibroblast cells) [%] | CC30 (concentration required for 30% cells proliferation inhibition) (L929 cells) | melting point [°C] | other results
1 | Cc1nc[nH]c1C(=O)NNC(=S)Nc1ccccc1[N+](=O)[O-] [Compound 2, 1-(4-Methylimidazol-5-oyl)-4-(2-nitrophenyl)thiosemicarbazide] | 43 (≈ 134 µM) | 103 | 101 | 96.7 | 94.6 | 89.7 | 75.3 | 53.4 | 29.1 | 181.55 µg/mL | 215 to 217 | –
2 | Cc1nc[nH]c1C(=O)NNC(=S)Nc1cccc([N+](=O)[O-])c1 [Compound 3, 1-(4-Methylimidazol-5-oyl)-4-(3-nitrophenyl)thiosemicarbazide] | 14.8 (≈ 46.1 µM) | 95.4 | 94.6 | 94.6 | 89.4 | 79 | 72.4 | 55.8 | 15.3 | 141.25 µg/mL | – | –
3 | Cc1nc[nH]c1C(=O)NNC(=S)Nc1ccc([N+](=O)[O-])cc1 [Compound 4, 1-(4-Methylimidazol-5-oyl)-4-(4-nitrophenyl)thiosemicarbazide] | 21.6 (≈ 67.5 µM) | 98.5 | 95.7 | 95.1 | 93.1 | 88.9 | 79.6 | 66.9 | 23.2 | 238.78 µg/mL | 235 to 237 | fold more potent than sulfadiazine (T. gondii RH tachyzoites; T. gondii proliferation, IC50 ratio): 184 fold
4 | COc1ccccc1NC(=S)NNC(=O)c1[nH]cnc1C [Compound 5, 4-(2-Methoxyphenyl)-1-(4-methylimidazol-5-oyl)thiosemicarbazide] | 33.1 (≈ 108 µM) | 95.8 | 91.9 | 89 | 86.5 | 78.5 | 69.7 | 63.1 | 53.6 | 138.04 µg/mL | – | –
5 | COc1cccc(NC(=S)NNC(=O)c2[nH]cnc2C)c1 [Compound 6, 4-(3-Methoxyphenyl)-1-(4-methylimidazol-5-oyl)thiosemicarbazide] | 79.7 (≈ 261 µM) | 92.8 | 88.6 | 86.2 | 83.3 | 79.7 | 68.8 | 67.3 | 56.8 | 165.96 µg/mL | 196 to 198 | –
6 | COc1ccc(NC(=S)NNC(=O)c2nc[nH]c2C)cc1 [Compound 7] | 114 (≈ 373 µM) | 95.1 | 90.3 | 89.5 | 87.7 | 85.8 | 84 | 70.7 | 68.6 | 389.05 µg/mL | – | –
7 | Cc1nc[nH]c1C(=O)NNC(=S)NCc1ccccc1 [Compound 8, 4-Benzyl-1-(4-methylimidazol-5-oyl)thiosemicarbazide] | – | 101 | 99.4 | 96.5 | 92 | 88.8 | 64.9 | 53.3 | 46.6 | 123.03 µg/mL | – | IC50 (T. gondii RH tachyzoites; IC50 greater than 125 µg/mL (highest concentration tested), calculated by extrapolation of the curves (GraphPad Prism), read-out: IC50 (50% inhibition of T. gondii proliferation in vitro), extrapolated): ~150 µg/mL (≈ 517 µM)
8 | Cc1nc[nH]c1C(=O)NNC(=S)NCCCl [Compound 9] | – | – | – | – | – | – | – | – | – | >500.00 µg/mL and >500 µg/mL | 175 to 177 | IC50 (T. gondii RH tachyzoites; read-out: IC50 (50% inhibition of T. gondii proliferation in vitro)): > 125 µg/mL; viability at 24 h, 3.91 µg/mL [1]: 100%; viability at 24 h, 7.81 µg/mL [1]: 98.3%; viability at 24 h, 15.63 µg/mL [1]: 97.1%; viability at 24 h, 31.25 µg/mL [1]: 96%; viability at 24 h, 62.5 µg/mL [1]: 95.6%; viability at 24 h, 125 µg/mL [1]: 94.4%; viability at 24 h, 250 µg/mL [1]: 92.8%; viability at 24 h, 500 µg/mL [1]: 87.4%
9 | Cc1nc[nH]c1C(=O)NNC(=S)Nc1cccc(Cl)c1 [Compound 10, 4-(3-Chlorophenyl)-1-(4-methylimidazol-5-oyl)thiosemicarbazide] | 25.7 (≈ 83 µM) | 95.7 | 94.1 | 93.5 | 74.6 | 72.1 | 69.9 | 61.8 | 22.1 | 112.20 µg/mL | 203 to 205 | –
10 | Cc1nc[nH]c1C(=O)NNC(=S)Nc1cccc(F)c1 [Compound 11, 4-(3-Fluorophenyl)-1-(4-methylimidazol-5-oyl)thiosemicarbazide] | ~118 (≈ 402 µM) | 104 | 101 | 99.8 | 92.7 | 75.6 | 66 | 57.8 | 46.3 | 95.50 µg/mL | 191 to 192 | –
11 | CC(=O)c1cccc(NC(=S)NNC(=O)c2[nH]cnc2C)c1 [Compound 12, 4-(3-Acetylphenyl)-1-(4-methylimidazol-5-oyl)thiosemicarbazide] | 95.5 (≈ 301 µM) | 106 | 104 | 103 | 101 | 99.3 | 96.7 | 76.8 | 56.2 | 206.54 µg/mL | – | –
12 | Cc1nc[nH]c1C(=O)NNC(=S)Nc1cc(F)ccc1F [Compound 15, 4-(2,5-Difluorophenyl)-1-(4-methylimidazol-5-oyl)thiosemicarbazide] | 53.1 (≈ 170 µM) | 105 | 102 | 101 | 96.2 | 84.3 | 74.8 | 65.2 | 51.2 | 158.49 µg/mL | – | IC50 (50% inhibition of T. gondii proliferation in vitro) (T. gondii RH tachyzoites; RH tachyzoites in Vero cells, [3H]uracil incorporation, highest concentration tested 125 µg/mL): 53.70 µg/mL
13 | Cc1ccc(NC(=S)NNC(=O)c2[nH]cnc2C)cc1 [Compound 18] | ~57.6 (≈ 199 µM) | 99.1 | 91.7 | 82 | 69 | 64.6 | 63.7 | 60.4 | 53 | 34.67 µg/mL | – | –
14 | CCOc1ccc(NC(=S)NNC(=O)c2[nH]cnc2C)cc1 [Compound 21, 4-(4-Ethoxyphenyl)-1-(4-methylimidazol-5-oyl)thiosemicarbazide] | 95.3 (≈ 298 µM) | 115 | 114 | 112 | 106 | 101 | 84.3 | 82.3 | 72 | 500.00 µg/mL and 500 µg/mL | – | –
